Test system: S. marcescens
Assay: Anti-microbial activity, log reduction of survivors after inoculation
Format: cell-based
Details: saline solution with 1.2% amino alcohol, 0.3% sodium chloride, 0.05% disodium edetate, pH 7.4
Experimental: The antibacterial activity of the above-described saline solutions against S. marcescens was evaluated. The formulations were evaluated by inoculating 20 ml of each solution with 0.1 ml of a microbial suspension. The final concentration was 10^6 colony forming units (“CPUs”) per ml. At each time point, pour plates of SCDA were prepared containing diluted aliquots of the various test samples. The bacteria and yeast plates were incubated at 30° to 35° C. for 2 to 3 days. The mold plates were incubated at 20° to 25° C. for five days. Following the colony incubation period, the number of CFUs were counted and the log reduction of the CFUs relative to the starting amount was calculated. The anti-microbial activity of the formulations against S. marcescens and P. aeruginosa was evaluated.

SMILES	Log Reduction of Survivors (6 hours) [log]	Log Reduction of Survivors (24 hours) [log]
CCC(N)(CO)CO [AEPD, 2-amino-2-ethyl-1,3-propanediol]	0.0	0.7
CC(C)(N)CO [AMP, 2-amino-2-methyl-1-propanol]	0.1	0.5
CC(N)(CO)CO [AMPD, 2-amino-2-methyl-1,3-propanediol]	0.0	0.0
OCCN1CCN(CCO)CC1 [BHP, 1,4-Bis(2-hydroxyethyl)-piperazine, reference compound]	0.1	0.1
CN(C)C(C)(C)CO [DMAMP, 2-dimethylamino-methyl-1-propanol]	0.0	0.7
